According to the NIST ThermoML archive (doi:10.1021/je030165y):
Numbers after ± are expanded uncertainties.

test: refractive index (Na D-line) (dimensionless); conditions: 298.15 K; 101.33 kPa; Liquid; Standard Abbe refractometry

Q: For COCCOC [1,2-dimethoxyethane], which refractive index is on record?
A: 1.3783 ± 0.0008

Q: Which refractive index does the source give for C1CCCCC1 [cyclohexane] here?
A: 1.4236 ± 0.0008

Q: For CCCCCC [hexane], which refractive index is on record?
A: 1.3722 ± 0.0007

Q: With Cc1ccccc1 [toluene] as the molecule, how does the refractive index read?
A: 1.4941 ± 0.0008
